Activity calls are given as the source filed them.
How the values were obtained:
[1] = molecular target: T1, Sentrin-specific protease 6 (Homo sapiens, UniProt Q9GZR1); assay: SAR Analysis of small molecule inhibitors of Sentrin-specific protease 6 (SENP6) using a Luminescent assay. [Related pubchem assays (depositor defined):AID2582, AID2599]; assay type: functional
T1 sequence (Q9GZR1 whole entry): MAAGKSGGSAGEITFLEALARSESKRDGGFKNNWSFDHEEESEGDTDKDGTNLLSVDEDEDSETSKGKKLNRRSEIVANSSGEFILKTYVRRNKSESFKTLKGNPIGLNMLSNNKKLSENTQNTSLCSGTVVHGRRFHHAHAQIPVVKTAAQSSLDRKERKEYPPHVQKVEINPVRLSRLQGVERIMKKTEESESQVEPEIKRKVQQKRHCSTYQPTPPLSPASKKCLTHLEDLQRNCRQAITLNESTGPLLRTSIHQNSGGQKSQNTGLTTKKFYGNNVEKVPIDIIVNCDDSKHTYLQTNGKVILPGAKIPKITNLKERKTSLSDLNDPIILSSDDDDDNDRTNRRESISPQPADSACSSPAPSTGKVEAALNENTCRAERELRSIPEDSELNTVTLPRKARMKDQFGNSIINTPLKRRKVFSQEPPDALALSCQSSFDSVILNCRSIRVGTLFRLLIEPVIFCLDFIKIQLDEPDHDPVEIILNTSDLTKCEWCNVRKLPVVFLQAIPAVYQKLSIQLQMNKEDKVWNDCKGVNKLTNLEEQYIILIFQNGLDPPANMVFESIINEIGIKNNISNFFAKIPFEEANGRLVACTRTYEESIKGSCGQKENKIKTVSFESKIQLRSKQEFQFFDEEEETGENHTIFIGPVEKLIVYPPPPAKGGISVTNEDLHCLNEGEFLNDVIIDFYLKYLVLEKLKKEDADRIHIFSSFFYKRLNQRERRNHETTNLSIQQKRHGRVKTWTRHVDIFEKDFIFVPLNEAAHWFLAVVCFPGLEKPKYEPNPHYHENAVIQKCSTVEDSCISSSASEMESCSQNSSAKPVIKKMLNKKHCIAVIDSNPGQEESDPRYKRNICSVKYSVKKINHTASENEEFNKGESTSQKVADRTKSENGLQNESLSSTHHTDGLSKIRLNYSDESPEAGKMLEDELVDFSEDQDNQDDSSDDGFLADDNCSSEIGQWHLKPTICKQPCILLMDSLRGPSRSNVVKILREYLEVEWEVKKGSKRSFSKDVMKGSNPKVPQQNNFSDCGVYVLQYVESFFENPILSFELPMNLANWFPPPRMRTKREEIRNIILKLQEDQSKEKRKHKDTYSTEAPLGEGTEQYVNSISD

[2] = molecular target: T2, Caspase-3 (Homo sapiens, UniProt P42574); assay: SAR Analysis of small molecule inhibitors of Sentrin-specific proteases (SENPs) using a Caspase-3 Selectivity assay. [Related pubchem assays (depositor defined):AID2540, AID2599, AID434973, AID489001]; assay type: functional
T2 sequence (P42574 whole entry): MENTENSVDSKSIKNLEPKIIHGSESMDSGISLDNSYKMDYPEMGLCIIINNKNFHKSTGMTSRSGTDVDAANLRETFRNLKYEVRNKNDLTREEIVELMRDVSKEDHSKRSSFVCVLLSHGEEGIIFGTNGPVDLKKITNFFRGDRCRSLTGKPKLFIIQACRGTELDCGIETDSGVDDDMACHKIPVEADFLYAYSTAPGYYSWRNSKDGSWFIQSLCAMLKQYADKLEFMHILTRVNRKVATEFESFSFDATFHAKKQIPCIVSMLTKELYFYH

[3] = cells; assay type: functional, cell-based
[4] = toxicity toward HepG2 liver cells – cell-based, plate reader, cherry-pick, antagonist series, cytotoxicity control, dose response (AID 743416); assay type: functional
[5] = molecular target: Sphingosine 1-phosphate receptor 1 (Homo sapiens, UniProt P21453); assay type: functional;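 note: Tango beta-arrestin reporter U2OS cells stimulated with S1P near its EC80; inhibitor potency meaning antagonism of receptor activation by the natural agonist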
Chain of Sphingosine 1-phosphate receptor 1 (P21453 whole entry): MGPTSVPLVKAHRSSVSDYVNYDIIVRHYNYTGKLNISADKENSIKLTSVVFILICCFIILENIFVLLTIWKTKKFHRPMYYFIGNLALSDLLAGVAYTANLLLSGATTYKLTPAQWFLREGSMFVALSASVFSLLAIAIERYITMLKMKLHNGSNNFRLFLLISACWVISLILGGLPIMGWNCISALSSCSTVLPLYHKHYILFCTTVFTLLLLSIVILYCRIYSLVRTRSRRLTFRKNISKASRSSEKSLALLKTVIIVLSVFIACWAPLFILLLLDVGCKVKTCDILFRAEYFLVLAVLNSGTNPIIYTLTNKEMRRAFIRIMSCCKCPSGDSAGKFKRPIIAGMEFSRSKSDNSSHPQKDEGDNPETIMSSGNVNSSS

[6] = molecular target: Alkaline phosphatase, placental type (Homo sapiens, UniProt P05187); assay: human placental alkaline phosphatase inhibition – biochemical, luminescence, confirmation (AID 1512); assay type: functional
[7] = test system: BJ; assay: BJ-TERT fibroblast viability loss – cell-based, RAS-independent, luminescence, dose response (AID 1933); assay type: functional; settings: Homo sapiens
[8] = molecular target: Delta-type opioid receptor (Homo sapiens, UniProt P41143); assay: HTS Image-Based Screen for Antagonists of the DOR Receptor. [Related pubchem assays (depositor defined):AID1777, AID1785, AID1786, AID2133]; assay type: functional;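 note: U2OS cells expressing DOR stimulated with 100 nM SNC80 agonist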
Chain of Delta-type opioid receptor (P41143 whole entry): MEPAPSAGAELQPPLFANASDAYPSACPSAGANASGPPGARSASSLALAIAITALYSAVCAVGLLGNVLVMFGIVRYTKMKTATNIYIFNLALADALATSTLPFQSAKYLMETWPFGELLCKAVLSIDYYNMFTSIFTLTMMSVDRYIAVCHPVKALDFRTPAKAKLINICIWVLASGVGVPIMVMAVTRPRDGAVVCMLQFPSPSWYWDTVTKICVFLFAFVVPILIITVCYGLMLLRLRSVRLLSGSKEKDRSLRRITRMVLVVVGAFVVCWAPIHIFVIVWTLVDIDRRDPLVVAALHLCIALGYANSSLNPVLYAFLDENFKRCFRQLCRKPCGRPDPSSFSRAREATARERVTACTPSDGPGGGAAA

[9] = NIH3T3 cell viability loss – ATP luminescence, mouse fibroblasts, counter-screen, dose response (AID 2010); assay type: functional, cell-based;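 note: cells exposed to compound for about 90 hours before reading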
[10] = molecular target: G2/mitotic-specific cyclin-B1 (Homo sapiens, UniProt P14635); assay: Counterscreen assay for inhibitors of Wee1 degradation: dose response cell-based assay to identify inhibitors of cyclin B degradation. [Related pubchem assays: 1410, 1321 ]; assay type: functional
[11] = test system: HEK293; assay: cells; assay type: functional, cell-based; settings: Homo sapiens
[12] = test system: HEK293; assay: inhibition of NOD1-driven NF-kB reporter – cell-based, luminescence, uHTS, primary screen (AID 1578); assay type: functional; settings: Homo sapiens
[13] = molecular target: Vascular endothelial growth factor receptor 3 (Homo sapiens, UniProt P35916); assay type: functional;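 note: value from a kinome-wide profiling panel, with FLT4 as the panel member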
[14] = molecular target: Mast/stem cell growth factor receptor Kit (Homo sapiens, UniProt P10721); assay type: functional;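 note: KIT entry within a kinase panel assay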
[15] = molecular target: MAP kinase-interacting serine/threonine-protein kinase 2 (Homo sapiens, UniProt Q9HBH9); assay type: functional
Chain of MAP kinase-interacting serine/threonine-protein kinase 2 (Q9HBH9 whole entry): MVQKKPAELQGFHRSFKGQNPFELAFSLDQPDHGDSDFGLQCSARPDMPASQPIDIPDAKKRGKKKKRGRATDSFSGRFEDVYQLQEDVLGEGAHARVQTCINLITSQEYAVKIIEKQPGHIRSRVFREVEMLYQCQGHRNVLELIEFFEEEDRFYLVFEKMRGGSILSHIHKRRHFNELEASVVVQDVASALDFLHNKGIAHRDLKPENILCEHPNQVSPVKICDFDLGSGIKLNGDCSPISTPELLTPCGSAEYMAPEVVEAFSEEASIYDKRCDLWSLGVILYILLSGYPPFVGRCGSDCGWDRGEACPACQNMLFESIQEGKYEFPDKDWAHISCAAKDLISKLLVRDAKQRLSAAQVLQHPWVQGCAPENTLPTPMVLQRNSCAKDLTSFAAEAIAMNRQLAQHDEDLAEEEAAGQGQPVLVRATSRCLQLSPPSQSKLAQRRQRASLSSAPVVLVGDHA

[16] = molecular target: Serine/threonine-protein kinase DCLK1 (Homo sapiens, UniProt O15075); assay type: functional;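 note: affinity for DCLK1 (listed as DCAMKL1) measured as one member of a kinome-wide kinase profiling panel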
[17] = molecular target: Casein kinase II subunit alpha (Homo sapiens, UniProt P68400); assay type: functional
Chain of Casein kinase II subunit alpha (P68400 whole entry): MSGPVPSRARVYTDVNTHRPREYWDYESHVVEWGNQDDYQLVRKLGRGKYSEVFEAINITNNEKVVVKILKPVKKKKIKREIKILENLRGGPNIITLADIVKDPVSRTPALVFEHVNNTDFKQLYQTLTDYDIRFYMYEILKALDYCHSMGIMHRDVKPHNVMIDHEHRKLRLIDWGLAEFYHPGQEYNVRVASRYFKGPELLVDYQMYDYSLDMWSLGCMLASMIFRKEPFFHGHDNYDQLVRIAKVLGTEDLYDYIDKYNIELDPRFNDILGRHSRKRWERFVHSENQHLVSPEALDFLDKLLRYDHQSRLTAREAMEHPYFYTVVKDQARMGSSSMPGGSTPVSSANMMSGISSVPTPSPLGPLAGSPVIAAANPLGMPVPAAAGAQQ

[18] = molecular target: Aurora kinase A (Homo sapiens, UniProt O14965); assay type: functional;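 note: value from the Navigating the Kinome kinase panel profiling, panel entry STK6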
Chain of Aurora kinase A (O14965 whole entry): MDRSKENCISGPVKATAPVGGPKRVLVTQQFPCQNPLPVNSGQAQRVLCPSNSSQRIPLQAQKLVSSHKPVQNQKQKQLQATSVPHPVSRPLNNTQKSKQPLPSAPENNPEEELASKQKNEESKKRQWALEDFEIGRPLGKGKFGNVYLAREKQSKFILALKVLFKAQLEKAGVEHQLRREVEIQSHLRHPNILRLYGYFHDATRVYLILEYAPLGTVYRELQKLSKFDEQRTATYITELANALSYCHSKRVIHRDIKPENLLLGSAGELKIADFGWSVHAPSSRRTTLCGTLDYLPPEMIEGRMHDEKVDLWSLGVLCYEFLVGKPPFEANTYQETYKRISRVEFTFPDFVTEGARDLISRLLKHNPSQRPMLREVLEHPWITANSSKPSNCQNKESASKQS

[19] = molecular target: Protein kinase C zeta type (Homo sapiens, UniProt Q05513); assay type: functional;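 note: measured as one member of a broad kinase profiling panel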
Chain of Protein kinase C zeta type (Q05513 whole entry): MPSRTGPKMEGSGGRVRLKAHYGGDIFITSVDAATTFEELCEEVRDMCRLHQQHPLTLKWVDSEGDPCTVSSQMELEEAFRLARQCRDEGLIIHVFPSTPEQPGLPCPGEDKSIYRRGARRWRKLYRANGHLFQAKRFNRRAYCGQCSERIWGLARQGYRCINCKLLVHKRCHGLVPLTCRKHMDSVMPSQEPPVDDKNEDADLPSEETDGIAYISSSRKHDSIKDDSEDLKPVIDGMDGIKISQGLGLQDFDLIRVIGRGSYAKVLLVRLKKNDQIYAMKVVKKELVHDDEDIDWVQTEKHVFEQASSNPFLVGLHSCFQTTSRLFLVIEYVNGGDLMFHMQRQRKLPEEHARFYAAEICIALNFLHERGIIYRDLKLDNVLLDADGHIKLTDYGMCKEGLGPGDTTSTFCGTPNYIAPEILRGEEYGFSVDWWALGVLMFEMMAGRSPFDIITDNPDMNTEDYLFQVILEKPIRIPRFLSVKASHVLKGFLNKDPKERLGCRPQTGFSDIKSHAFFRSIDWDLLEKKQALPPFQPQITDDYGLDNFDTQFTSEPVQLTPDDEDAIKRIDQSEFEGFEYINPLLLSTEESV

[20] = molecular target: Tyrosine-protein kinase FRK (Homo sapiens, UniProt P42685); assay type: functional;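 note: FRK tested as one member of a kinome panel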
[21] = molecular target: Serine/threonine-protein kinase Nek4 (Homo sapiens, UniProt P51957); assay type: functional
Chain of Serine/threonine-protein kinase Nek4 (P51957 whole entry): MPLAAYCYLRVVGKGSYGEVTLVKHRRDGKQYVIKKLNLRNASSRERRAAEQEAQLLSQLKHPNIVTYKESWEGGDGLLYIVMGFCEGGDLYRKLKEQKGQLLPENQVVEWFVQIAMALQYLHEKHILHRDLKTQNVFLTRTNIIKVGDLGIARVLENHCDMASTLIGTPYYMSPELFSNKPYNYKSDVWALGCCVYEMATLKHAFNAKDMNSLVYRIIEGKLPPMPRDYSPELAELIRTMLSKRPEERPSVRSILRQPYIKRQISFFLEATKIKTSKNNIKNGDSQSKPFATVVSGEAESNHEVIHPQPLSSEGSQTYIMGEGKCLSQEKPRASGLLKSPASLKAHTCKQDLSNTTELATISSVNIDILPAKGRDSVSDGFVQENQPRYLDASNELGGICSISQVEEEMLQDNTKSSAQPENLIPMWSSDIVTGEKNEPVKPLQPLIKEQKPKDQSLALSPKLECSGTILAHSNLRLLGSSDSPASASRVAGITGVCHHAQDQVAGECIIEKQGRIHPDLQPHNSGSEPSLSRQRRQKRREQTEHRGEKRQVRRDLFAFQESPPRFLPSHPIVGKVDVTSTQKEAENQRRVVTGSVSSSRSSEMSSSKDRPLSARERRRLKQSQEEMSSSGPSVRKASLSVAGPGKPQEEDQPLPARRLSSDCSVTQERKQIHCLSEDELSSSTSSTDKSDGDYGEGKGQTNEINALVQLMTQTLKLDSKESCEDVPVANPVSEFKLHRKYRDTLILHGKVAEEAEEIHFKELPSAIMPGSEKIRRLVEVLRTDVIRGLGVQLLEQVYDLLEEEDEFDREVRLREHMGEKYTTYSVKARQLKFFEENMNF

[22] = molecular target: Ephrin type-A receptor 2 (Homo sapiens, UniProt P29317); assay type: functional;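 note: EPHA2 tested as one member of a kinome-wide kinase panel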
Chain of Ephrin type-A receptor 2 (P29317 whole entry): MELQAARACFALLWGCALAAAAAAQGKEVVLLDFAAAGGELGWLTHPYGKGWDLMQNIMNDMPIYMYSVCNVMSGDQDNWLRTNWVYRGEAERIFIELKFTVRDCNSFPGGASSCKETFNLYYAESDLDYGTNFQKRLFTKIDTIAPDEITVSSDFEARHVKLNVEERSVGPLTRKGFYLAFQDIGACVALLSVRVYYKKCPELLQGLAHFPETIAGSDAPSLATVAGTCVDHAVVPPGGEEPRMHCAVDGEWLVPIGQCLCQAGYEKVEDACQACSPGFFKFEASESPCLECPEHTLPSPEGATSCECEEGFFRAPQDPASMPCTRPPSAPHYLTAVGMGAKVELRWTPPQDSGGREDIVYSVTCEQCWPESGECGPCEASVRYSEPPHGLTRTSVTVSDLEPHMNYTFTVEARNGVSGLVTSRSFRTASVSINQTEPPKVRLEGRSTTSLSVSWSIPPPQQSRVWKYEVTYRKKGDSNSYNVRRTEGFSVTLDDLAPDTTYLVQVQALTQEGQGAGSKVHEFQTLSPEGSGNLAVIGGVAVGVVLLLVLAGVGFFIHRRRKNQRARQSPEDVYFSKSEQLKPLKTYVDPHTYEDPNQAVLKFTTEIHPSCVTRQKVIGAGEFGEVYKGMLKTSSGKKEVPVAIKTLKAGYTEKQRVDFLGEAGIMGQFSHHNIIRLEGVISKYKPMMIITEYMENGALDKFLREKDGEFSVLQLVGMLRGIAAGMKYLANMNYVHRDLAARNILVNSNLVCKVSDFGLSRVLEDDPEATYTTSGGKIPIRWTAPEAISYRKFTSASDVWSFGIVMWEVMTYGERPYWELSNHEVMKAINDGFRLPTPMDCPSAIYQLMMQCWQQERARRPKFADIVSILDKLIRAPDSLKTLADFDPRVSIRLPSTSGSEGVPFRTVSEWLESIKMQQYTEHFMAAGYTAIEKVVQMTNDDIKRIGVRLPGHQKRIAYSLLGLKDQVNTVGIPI

[23] = molecular target: Tyrosine-protein kinase JAK2 (Homo sapiens, UniProt O60674); assay type: functional;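 note: JAK2 tested as one member of a kinase panel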
[24] = molecular target: Dual specificity tyrosine-phosphorylation-regulated kinase 3 (Homo sapiens, UniProt O43781); assay type: functional;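 note: measured as one member of a broad kinase panel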
Chain of Dual specificity tyrosine-phosphorylation-regulated kinase 3 (O43781 whole entry): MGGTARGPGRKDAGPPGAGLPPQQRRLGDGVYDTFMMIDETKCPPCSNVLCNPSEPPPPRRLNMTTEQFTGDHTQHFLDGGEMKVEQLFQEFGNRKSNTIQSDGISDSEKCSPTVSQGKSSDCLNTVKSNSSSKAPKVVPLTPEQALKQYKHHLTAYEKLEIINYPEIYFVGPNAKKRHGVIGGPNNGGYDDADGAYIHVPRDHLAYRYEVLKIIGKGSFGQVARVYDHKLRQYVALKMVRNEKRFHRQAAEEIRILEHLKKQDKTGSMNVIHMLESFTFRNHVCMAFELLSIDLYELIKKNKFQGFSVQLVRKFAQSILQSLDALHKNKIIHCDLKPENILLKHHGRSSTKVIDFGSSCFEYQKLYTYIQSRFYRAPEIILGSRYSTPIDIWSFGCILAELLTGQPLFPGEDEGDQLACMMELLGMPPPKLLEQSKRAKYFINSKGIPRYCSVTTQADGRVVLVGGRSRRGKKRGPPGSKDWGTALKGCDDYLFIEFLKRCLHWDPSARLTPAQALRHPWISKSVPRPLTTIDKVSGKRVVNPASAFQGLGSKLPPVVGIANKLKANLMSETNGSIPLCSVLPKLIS

[25] = molecular target: Glycogen synthase kinase-3 alpha (Homo sapiens, UniProt P49840); assay type: functional;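 note: GSK3A result taken from a broad kinome-wide kinase panel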
[26] = molecular target: Serine/threonine-protein kinase MRCK alpha (Homo sapiens, UniProt Q5VT25); assay type: functional
[27] = cells; assay type: functional

For `Cc1cnc(NC(=O)c2sc3ccccc3c2Cl)s1`, the IC50 [1] was 3.95 µM (active), the IC50 [2] was 3.14 µM (active) and the IC50 [3] was > 67.5 µM (inactive). The AC50 [4] was > 52 µM (inactive).

With `Cc1ccc(Nc2cc(C)nn2-c2nc(C)cc(O)n2)cc1` the IC50 [5] was 764 nM (active), the IC50 [6] was > 100 µM (inactive) and the EC50 [7] was 549 nM (active). For the same compound, the IC50 [8] was > 32 µM (inactive), the EC50 [9] was 497 nM (active) and the EC50 [10] was > 49.7 µM (not active).

In the case of `O=C1C(O)=C/C(=N\c2ccccc2O)c2ccccc21`, the IC50 [11] is reported as > 20 µM (inactive) and the EC50 [12] is reported as 14.8 µM (active).

With `O=C1NC(=S)SC1=C1C(=O)Nc2ccc(Br)cc21` the Ki [13] was > 6.31 µM (inactive), the Ki [14] was > 1.26 µM (inactive) and the Ki [15] was 794 nM (active). The Ki [16] was > 10 µM (inactive), the Ki [17] was 631 nM (active) and the Ki [18] was 501 nM (active). The Ki [19] was > 7.94 µM (inactive), the Ki [20] was > 2.51 µM (inactive) and the Ki [21] was > 6.31 µM (inactive). For the same compound, the Ki [22] was > 3.16 µM (inactive), the Ki [23] was > 1.58 µM (inactive) and the Ki [24] was > 6.31 µM (inactive). The Ki [25] was 316 nM (active) and the Ki [26] was > 10 µM (inactive).

In the case of `Nc1ccc(Br)c2cccnc12`, the IC50 [27] is reported as > 50 µM (active).

Source: ChEMBL document CHEMBL1201862, “PubChem BioAssay data set” (2004)
